Measured values as given in the supplement of paper PMC10307832.

What was measured:
Assay in all cases: relative viability (nuclei count vs DMSO), 5 days (fraction); higher = more cells survive
[1] = compound: CC1=CC=C(C=C1)C(=O)CN2C3=C(CCCC3)SC2=N [Pifithrin_alpha] + CC(=O)c1c(C)c2cnc(Nc3ccc(N4CCNCC4)cn3)nc2n(C2CCCC2)c1=O [Palbociclib] (partner 0.5 µM)
Summary of the method: (§1)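 A single step with final 0.05% Triton X-100, 1% formaldehyde and 1 ug/ml Hoechst fixed the cells and stained nuclei 5 days after treatment. Lung cancer cell lines in 1536-well plates had been treated by pin tool the day after seeding with one drug alone or a fixed anchor-drug dose plus five library-drug doses (not always all listed) in √10 steps, and nuclei were counted on 4× images. Relative viability is the ratio of nuclei in treated wells to nuclei in vehicle wells, taken as the median of duplicate plates.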

Axitinib + Crizotinib = compound: CNC(=O)c1ccccc1Sc1ccc2c(/C=C/c3ccccn3)n[nH]c2c1 [Axitinib] + C[C@@H](Oc1cc(-c2cnn(C3CCNCC3)c2)cnc1N)c1c(Cl)ccc(F)c1Cl [Crizotinib] (partner 1 µM)
Summary of the method: as §1

Bemcentinib + Bortezomib = compound: Nc1nc(Nc2ccc3c(c2)CC[C@@H](N2CCCC2)CC3)nn1-c1cc2c(nn1)-c1ccccc1CCC2 [Bemcentinib] + CC(C)C[C@H](NC(=O)[C@H](Cc1ccccc1)NC(=O)c1cnccn1)B(O)O [Bortezomib] (partner 0.002 µM)
Summary of the method: as §1

[2] = compound: CC1=CC=C(C=C1)C(=O)CN2C3=C(CCCC3)SC2=N [Pifithrin_alpha] + N=C(N)NC(=N)NCCc1ccccc1 [Phenformin] (partner 250 µM)
Summary of the method: as §1

Cell Line | relative viability ([1]; first compound 1 µM) | relative viability ([1]; first compound 3.162 µM) | relative viability ([1]; first compound 10 µM) | relative viability ([1]; first compound 31.62 µM) | relative viability ([1]; first compound 100 µM) | relative viability (Axitinib + Crizotinib; first compound 0.005 µM) | relative viability (Axitinib + Crizotinib; first compound 0.01581 µM) | relative viability (Axitinib + Crizotinib; first compound 0.05 µM) | relative viability (Axitinib + Crizotinib; first compound 0.1581 µM) | relative viability (Axitinib + Crizotinib; first compound 0.5 µM) | relative viability (Bemcentinib + Bortezomib; first compound 0.1265 µM) | relative viability (Bemcentinib + Bortezomib; first compound 0.4 µM) | relative viability (Bemcentinib + Bortezomib; first compound 1.265 µM) | relative viability (Bemcentinib + Bortezomib; first compound 4 µM) | relative viability ([2]; first compound 1 µM) | relative viability ([2]; first compound 3.162 µM) | relative viability ([2]; first compound 10 µM) | relative viability ([2]; first compound 31.62 µM) | relative viability ([2]; first compound 100 µM) | relative viability (Bemcentinib + Bortezomib; first compound 0.04 µM)
A-427 | 0.5 | 0.529 | 0.497 | 0.447 | 0.454 | 1 | 0.958 | 0.82 | 0.898 | 0.901 | 0.971 | 0.871 | 0.942 | 0.967 | 0.318 | 0.305 | 0.245 | 0.235 | 0.264 | 
NCI-H2126 | 0.333 | 0.381 | 0.356 | 0.302 | 0.373 | 1.08 | 0.998 | 0.928 | 0.97 | 1.02 | 1.07 | 1.18 | 1.16 | 1.13 | 0.475 | 0.498 | 0.499 | 0.464 | 0.427 | 1.11
NCI-H647 | 0.376 | 0.364 | 0.353 | 0.269 | 0.285 | 1.12 | 1.01 | 1.04 | 1.09 | 1.23 | 1.14 | 1.24 | 0.811 | 1.11 | 0.58 | 0.674 | 0.548 | 0.299 | 0.4 | 1.18
ChaGo-K-1 | 0.87 | 0.955 | 0.901 | 0.509 | 0.911 | 1.1 | 1.17 | 1.13 | 1.05 | 1.15 | 1.1 | 0.98 | 0.804 | 0.766 | 0.485 | 0.5 | 0.491 | 0.387 | 0.472 | 0.905
UMC-11 | 0.342 | 0.289 | 0.301 | 0.283 | 0.296 | 0.556 | 0.59 | 0.59 | 0.584 | 0.482 | 0.771 | 0.724 | 0.428 | 0.682 | 0.312 | 0.337 | 0.322 | 0.287 | 0.303 | 0.413
LOU-NH91 | 0.471 | 0.537 | 0.516 | 0.491 | 0.523 | 0.765 | 0.641 | 0.773 | 0.697 | 0.78 | 0.503 | 0.493 | 0.487 | 0.407 | 0.514 | 0.647 | 0.689 | 0.665 | 0.627 | 0.429
HCC-44 | 0.825 | 0.922 | 0.867 | 0.81 | 0.812 | 0.898 | 0.834 | 0.841 | 0.792 | 0.869 | 0.92 | 0.992 | 0.89 | 0.917 | 0.17 | 0.164 | 0.171 | 0.133 | 0.178 | 0.974
HCC-15 | 0.514 | 0.731 | 0.765 | 0.516 | 0.625 | 0.907 | 0.84 | 0.793 | 0.696 | 0.825 | 1.19 | 1.12 | 1 | 1.07 | 0.487 | 0.449 | 0.435 | 0.249 | 0.279 | 0.931
NCI-H522 | 0.988 | 0.854 | 0.834 | 0.893 | 0.947 |  |  |  |  |  |  |  |  |  | 0.736 | 0.63 | 0.65 | 0.673 | 0.693 | 
NCI-H1563 |  |  |  |  |  | 0.957 | 0.791 | 0.877 | 0.833 | 0.907 | 0.86 | 0.859 | 0.992 | 0.863 | 0.622 | 0.706 | 0.643 | 0.601 | 0.616 | 0.811
NCI-H1703 |  |  |  |  |  | 0.777 | 0.27 | 0.158 | 0.136 | 0.237 | 0.237 | 0.292 | 0.284 | 0.29 |  |  |  |  |  | 0.25
Calu-6 |  |  |  |  |  | 0.82 | 0.795 | 0.783 | 0.865 | 0.961 | 1.07 | 1.07 | 1.08 | 1.12 |  |  |  |  |  | 1.05
NCI-H596 |  |  |  |  |  | 1.03 | 1.06 | 1.06 | 0.993 | 0.495 | 1.23 | 1.08 | 1.1 | 1.03 | 0.761 | 0.737 | 0.84 | 0.766 | 0.494 | 0.897
LK-2 | 0.686 | 0.644 | 0.687 |  | 0.782 | 0.235 | 0.264 | 0.252 | 0.219 | 0.216 |  |  |  |  | 0.352 | 0.571 | 0.563 |  | 0.466 | 
NCI-H1944 | 0.326 | 0.303 | 0.277 | 0.233 | 0.284 | 1.05 | 1.24 | 1.03 | 1.15 | 1.18 |  |  |  |  | 0.165 | 0.209 | 0.191 | 0.166 | 0.22 | 
EBC-1 |  |  |  |  |  | 0.22 | 0.213 | 0.192 | 0.202 | 0.195 | 0.547 | 0.525 | 0.458 | 0.585 |  |  |  |  |  | 0.585
NCI-H2170 | 0.369 | 0.396 | 0.35 | 0.312 | 0.452 | 1.2 | 1.18 | 1.27 | 1.1 | 1.35 |  |  |  |  | 0.411 | 0.41 | 0.376 | 0.321 | 0.358 | 
SW 900 | 0.58 | 0.513 | 0.453 | 0.388 | 0.526 |  |  |  |  |  |  |  |  |  | 0.519 | 0.605 | 0.715 | 0.569 | 0.393 | 
NCI-H1395 |  | 0.617 | 0.62 |  | 0.603 |  |  |  |  |  |  |  |  |  | 0.428 | 0.433 | 0.411 | 0.416 | 0.41 | 
NCI-H1299 |  |  |  |  |  | 0.997 | 0.947 | 0.986 | 1 | 1.04 | 1.03 | 1.03 | 1.04 | 1.09 |  |  |  |  |  | 0.981
NCI-H1793 | 0.278 | 0.3 | 0.319 | 0.348 | 0.206 |  |  |  |  |  |  |  |  |  |  | 0.339 | 0.306 | 0.33 | 0.329 | 
NCI-H1623 |  |  |  |  |  |  |  |  |  |  |  |  |  |  | 0.556 | 0.619 | 0.556 | 0.465 | 0.561 | 
